Test results taken from ChEMBL document CHEMBL1126820, “4-alkylamino-3-bromo-N-alkyl-1,8-naphthalimides: new photochemically activatable antiviral compounds” (1993).

How the values were obtained:
Human alphaherpesvirus 1 = test: Photoinactivation against simplex virus type 1; type: functional
[1] = tested on: Human immunodeficiency virus 1; test: Concentration required for Photoinactivation of cell-associated HIV-1; type: functional
[2] = tested on: Human immunodeficiency virus 1; test: Concentration required for Photoinactivation of cell-free HIV-1; type: functional, organism-based
[3] = Concentration required for Photoinactivation of enveloped viruses; type: functional

| Structure (SMILES) | Activity (Human alphaherpesvirus 1) | Activity [1] | Activity [2] | Activity [3] |
| --- | --- | --- | --- | --- |
| CCCCCCN1C(=O)c2cccc3c(NCCNC(=O)CCCCC(=O)NCCNc4c(Br)cc5c6c(cccc46)C(=O)N(CCCCCC)C5=O)c(Br)cc(c23)C1=O | <500 nM | 300 nM | 1 µM | 0.1 µM |
| CCCCCCCCNc1c(Br)cc2c3c(cccc13)C(=O)N(CCCCCCCC)C2=O |  |  |  | 0.1 µM |
| CCCCNc1c(Br)cc2c3c(cccc13)C(=O)N(CCCC)C2=O |  |  |  | 0.1 µM |
| CCCCCCNc1c(Br)cc2c3c(cccc13)C(=O)N(CCCCCC)C2=O |  |  |  | 0.1 µM |
